# Read-outs that look alike come from different tables or passages of the source.
# Legend:
# EGFR = EGFR (Homo sapiens, UniProt P00533); assay: ADP-Glo kinase assay, EGFR; assay type: biochemical; design: purchased BPS Bioscience (assay run externally by the vendor)
# aurora A kinase (AURKA) = biological target: T1, aurora A kinase (AURKA) (Homo sapiens, UniProt O14965); assay: ADP-Glo kinase assay, Aurora A; assay type: biochemical
# T1 construct: purchased BPS Bioscience (assay run externally by the vendor)
# T1 sequence (O14965 1-403): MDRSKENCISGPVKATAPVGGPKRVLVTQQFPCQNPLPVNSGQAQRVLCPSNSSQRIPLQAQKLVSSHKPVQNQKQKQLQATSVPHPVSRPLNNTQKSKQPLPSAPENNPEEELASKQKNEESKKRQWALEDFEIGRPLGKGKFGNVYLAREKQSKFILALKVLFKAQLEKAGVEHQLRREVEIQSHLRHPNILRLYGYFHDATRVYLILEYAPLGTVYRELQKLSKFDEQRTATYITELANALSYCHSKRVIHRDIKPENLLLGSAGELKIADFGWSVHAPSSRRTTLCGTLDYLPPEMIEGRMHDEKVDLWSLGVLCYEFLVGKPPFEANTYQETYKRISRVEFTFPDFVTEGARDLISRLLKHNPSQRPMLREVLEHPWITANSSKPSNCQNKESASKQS
# [1] = 10 µM ATP, triplicate, read-out: EGFR IC50 ± SD
# [2] = 10 µM ATP, triplicate, read-out: AURKA IC50 ± SD
# [3] = 10 µM ATP/0.2 mg/ml Kemptide, read-out: Aurora A IC50 (dose-response curve, supplement)
# EGFR, sequence (P00533 25-1210): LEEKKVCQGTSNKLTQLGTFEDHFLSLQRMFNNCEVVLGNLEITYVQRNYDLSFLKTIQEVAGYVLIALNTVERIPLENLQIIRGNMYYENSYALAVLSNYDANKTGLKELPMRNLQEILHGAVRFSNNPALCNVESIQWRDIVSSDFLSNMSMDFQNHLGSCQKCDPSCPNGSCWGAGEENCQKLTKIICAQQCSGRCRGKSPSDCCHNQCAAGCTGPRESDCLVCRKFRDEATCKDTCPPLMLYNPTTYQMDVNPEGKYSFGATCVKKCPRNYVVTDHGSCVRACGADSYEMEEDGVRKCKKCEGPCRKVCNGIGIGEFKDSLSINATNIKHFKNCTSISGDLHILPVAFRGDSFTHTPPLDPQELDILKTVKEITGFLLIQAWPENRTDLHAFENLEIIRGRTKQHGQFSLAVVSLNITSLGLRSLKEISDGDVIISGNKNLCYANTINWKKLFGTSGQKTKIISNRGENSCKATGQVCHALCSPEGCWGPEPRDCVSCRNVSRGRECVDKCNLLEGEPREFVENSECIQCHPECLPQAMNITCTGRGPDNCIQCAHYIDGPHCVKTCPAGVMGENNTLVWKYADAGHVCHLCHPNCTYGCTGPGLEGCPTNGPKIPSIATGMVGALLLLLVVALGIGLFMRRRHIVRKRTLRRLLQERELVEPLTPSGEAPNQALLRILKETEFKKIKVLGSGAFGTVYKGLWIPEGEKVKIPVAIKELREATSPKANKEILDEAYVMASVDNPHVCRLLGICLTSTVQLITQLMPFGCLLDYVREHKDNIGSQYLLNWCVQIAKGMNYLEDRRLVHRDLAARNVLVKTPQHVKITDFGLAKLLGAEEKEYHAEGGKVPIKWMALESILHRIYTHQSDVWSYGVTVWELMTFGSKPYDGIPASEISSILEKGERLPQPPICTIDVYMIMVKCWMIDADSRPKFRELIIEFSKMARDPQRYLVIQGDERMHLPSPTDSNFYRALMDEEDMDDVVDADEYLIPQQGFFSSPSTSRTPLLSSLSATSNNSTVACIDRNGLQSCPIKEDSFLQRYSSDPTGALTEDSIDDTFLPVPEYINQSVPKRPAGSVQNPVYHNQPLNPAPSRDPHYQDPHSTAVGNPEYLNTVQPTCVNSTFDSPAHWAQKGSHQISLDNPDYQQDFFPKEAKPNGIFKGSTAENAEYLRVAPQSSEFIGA
smiles,measurement,setting,value
"Clc1ccccc1Nc1ncnc2[nH]ccc12 [Compound 14, N^4-(2-chlorophenyl)-7H-pyrrolo[2,3-d]pyrimidin-4-amine]",IC50,EGFR; [1],0.471 ± 0.114 µM
same,IC50,"EGFR; 10 µM ATP/0.2 mg/ml Poly-Glu-Tyr, read-out: EGFR IC50 (dose-response curve, supplement)",0.471 µM
same,EGFR % Activity Set1,EGFR; Log[nM] 0,100%
same,EGFR % Activity Set2,EGFR; Log[nM] 0,95%
same,EGFR % Activity Set3,EGFR; Log[nM] 0,94%
same,EGFR % Activity Set1,EGFR; Log[nM] 1.0,105%
same,EGFR % Activity Set2,EGFR; Log[nM] 1.0,90%
same,EGFR % Activity Set3,EGFR; Log[nM] 1.0,96%
same,EGFR % Activity Set1,EGFR; Log[nM] 1.5,108%
same,EGFR % Activity Set2,EGFR; Log[nM] 1.5,83%
same,EGFR % Activity Set3,EGFR; Log[nM] 1.5,93%
same,EGFR % Activity Set1,EGFR; Log[nM] 2.0,89%
same,EGFR % Activity Set2,EGFR; Log[nM] 2.0,75%
same,EGFR % Activity Set3,EGFR; Log[nM] 2.0,84%
same,EGFR % Activity Set1,EGFR; Log[nM] 2.5,62%
same,EGFR % Activity Set2,EGFR; Log[nM] 2.5,53%
same,EGFR % Activity Set3,EGFR; Log[nM] 2.5,57%
same,EGFR % Activity Set1,EGFR; Log[nM] 3.0,36%
same,EGFR % Activity Set2,EGFR; Log[nM] 3.0,27%
same,EGFR % Activity Set3,EGFR; Log[nM] 3.0,33%
same,EGFR % Activity Set1,EGFR; Log[nM] 3.5,16%
same,EGFR % Activity Set2,EGFR; Log[nM] 3.5,14%
same,EGFR % Activity Set3,EGFR; Log[nM] 3.5,16%
same,EGFR % Activity Set1,EGFR; Log[nM] 4.0,8%
same,EGFR % Activity Set2,EGFR; Log[nM] 4.0,6%
same,EGFR % Activity Set3,EGFR; Log[nM] 4.0,7%
same,EGFR % Activity Set1,EGFR; Log[nM] 4.5,4%
same,EGFR % Activity Set2,EGFR; Log[nM] 4.5,3%
same,EGFR % Activity Set3,EGFR; Log[nM] 4.5,3%
same,EGFR % Activity Set1,EGFR; Log[nM] 5.0,5%
same,EGFR % Activity Set2,EGFR; Log[nM] 5.0,4%
same,EGFR % Activity Set3,EGFR; Log[nM] 5.0,4%
same,IC50,aurora A kinase (AURKA); [2],5.66 ± 0.43 µM
same,IC50,aurora A kinase (AURKA); [3],5.7 µM
same,Aurora A % Activity Set1,aurora A kinase (AURKA); Log[nM] 0,97%
same,Aurora A % Activity Set2,aurora A kinase (AURKA); Log[nM] 0,92%
same,Aurora A % Activity Set3,aurora A kinase (AURKA); Log[nM] 0,94%
same,Aurora A % Activity Set1,aurora A kinase (AURKA); Log[nM] 1.0,102%
same,Aurora A % Activity Set2,aurora A kinase (AURKA); Log[nM] 1.0,97%
same,Aurora A % Activity Set3,aurora A kinase (AURKA); Log[nM] 1.0,98%
same,Aurora A % Activity Set1,aurora A kinase (AURKA); Log[nM] 1.5,111%
same,Aurora A % Activity Set2,aurora A kinase (AURKA); Log[nM] 1.5,96%
same,Aurora A % Activity Set3,aurora A kinase (AURKA); Log[nM] 1.5,98%
same,Aurora A % Activity Set1,aurora A kinase (AURKA); Log[nM] 2.0,103%
same,Aurora A % Activity Set2,aurora A kinase (AURKA); Log[nM] 2.0,98%
same,Aurora A % Activity Set3,aurora A kinase (AURKA); Log[nM] 2.0,102%
same,Aurora A % Activity Set1,aurora A kinase (AURKA); Log[nM] 2.5,101%
same,Aurora A % Activity Set2,aurora A kinase (AURKA); Log[nM] 2.5,106%
same,Aurora A % Activity Set3,aurora A kinase (AURKA); Log[nM] 2.5,101%
same,Aurora A % Activity Set1,aurora A kinase (AURKA); Log[nM] 3.0,87%
same,Aurora A % Activity Set2,aurora A kinase (AURKA); Log[nM] 3.0,86%
same,Aurora A % Activity Set3,aurora A kinase (AURKA); Log[nM] 3.0,93%
same,Aurora A % Activity Set1,aurora A kinase (AURKA); Log[nM] 3.5,73%
same,Aurora A % Activity Set2,aurora A kinase (AURKA); Log[nM] 3.5,68%
same,Aurora A % Activity Set3,aurora A kinase (AURKA); Log[nM] 3.5,73%
same,Aurora A % Activity Set1,aurora A kinase (AURKA); Log[nM] 4.0,28%
same,Aurora A % Activity Set2,aurora A kinase (AURKA); Log[nM] 4.0,25%
same,Aurora A % Activity Set3,aurora A kinase (AURKA); Log[nM] 4.0,27%
same,Aurora A % Activity Set1,aurora A kinase (AURKA); Log[nM] 4.5,14%
same,Aurora A % Activity Set2,aurora A kinase (AURKA); Log[nM] 4.5,13%
same,Aurora A % Activity Set3,aurora A kinase (AURKA); Log[nM] 4.5,14%
same,Aurora A % Activity Set1,aurora A kinase (AURKA); Log[nM] 5.0,13%
same,Aurora A % Activity Set2,aurora A kinase (AURKA); Log[nM] 5.0,11%
same,Aurora A % Activity Set3,aurora A kinase (AURKA); Log[nM] 5.0,14%
"Clc1ccc(Nc2ncnc3[nH]ccc23)cc1Cl [Compound 5, N^4-(3,4-dichlorophenyl)-7H-pyrrolo[2,3-d]pyrimidine-4-amine]",EGFR inhibition (in words),EGFR,single-digit nanomolar EGFR inhibition
same,IC50,EGFR; [1],0.0067 ± 0.00025 µM
same,EGFR % Activity Set1,EGFR; Log[nM] 0,51%
same,EGFR % Activity Set2,EGFR; Log[nM] 0,59%
same,EGFR % Activity Set3,EGFR; Log[nM] 0,58%
same,EGFR % Activity Set1,EGFR; Log[nM] 1.0,43%
same,EGFR % Activity Set2,EGFR; Log[nM] 1.0,46%
same,EGFR % Activity Set3,EGFR; Log[nM] 1.0,48%
same,EGFR % Activity Set1,EGFR; Log[nM] 1.5,14%
same,EGFR % Activity Set2,EGFR; Log[nM] 1.5,16%
same,EGFR % Activity Set3,EGFR; Log[nM] 1.5,16%
same,EGFR % Activity Set1,EGFR; Log[nM] 2.0,8%
same,EGFR % Activity Set2,EGFR; Log[nM] 2.0,9%
same,EGFR % Activity Set3,EGFR; Log[nM] 2.0,9%
same,EGFR % Activity Set1,EGFR; Log[nM] 2.5,3%
same,EGFR % Activity Set2,EGFR; Log[nM] 2.5,4%
same,EGFR % Activity Set3,EGFR; Log[nM] 2.5,5%
same,EGFR % Activity Set1,EGFR; Log[nM] 3.0,2%
same,EGFR % Activity Set2,EGFR; Log[nM] 3.0,2%
same,EGFR % Activity Set3,EGFR; Log[nM] 3.0,2%
same,EGFR % Activity Set1,EGFR; Log[nM] 3.5,1%
same,EGFR % Activity Set2,EGFR; Log[nM] 3.5,1%
same,EGFR % Activity Set3,EGFR; Log[nM] 3.5,1%
same,EGFR % Activity Set1,EGFR; Log[nM] 4.0,0%
same,EGFR % Activity Set2,EGFR; Log[nM] 4.0,0%
same,EGFR % Activity Set3,EGFR; Log[nM] 4.0,1%
same,EGFR % Activity Set1,EGFR; Log[nM] 4.5,0%
same,EGFR % Activity Set2,EGFR; Log[nM] 4.5,0%
same,EGFR % Activity Set3,EGFR; Log[nM] 4.5,0%
same,EGFR % Activity Set1,EGFR; Log[nM] 5.0,0%
same,EGFR % Activity Set2,EGFR; Log[nM] 5.0,3%
same,EGFR % Activity Set3,EGFR; Log[nM] 5.0,1%
same,IC50,aurora A kinase (AURKA); [2],3.91 ± 0.11 µM
same,IC50,aurora A kinase (AURKA); [3],3.9 µM
same,Aurora A % Activity Set1,aurora A kinase (AURKA); Log[nM] 0,95%
same,Aurora A % Activity Set2,aurora A kinase (AURKA); Log[nM] 0,97%
same,Aurora A % Activity Set3,aurora A kinase (AURKA); Log[nM] 0,103%
same,Aurora A % Activity Set1,aurora A kinase (AURKA); Log[nM] 1.0,104%
same,Aurora A % Activity Set2,aurora A kinase (AURKA); Log[nM] 1.0,95%
same,Aurora A % Activity Set3,aurora A kinase (AURKA); Log[nM] 1.0,97%
same,Aurora A % Activity Set1,aurora A kinase (AURKA); Log[nM] 1.5,98%
same,Aurora A % Activity Set2,aurora A kinase (AURKA); Log[nM] 1.5,101%
same,Aurora A % Activity Set3,aurora A kinase (AURKA); Log[nM] 1.5,102%
same,Aurora A % Activity Set1,aurora A kinase (AURKA); Log[nM] 2.0,104%
same,Aurora A % Activity Set2,aurora A kinase (AURKA); Log[nM] 2.0,107%
same,Aurora A % Activity Set3,aurora A kinase (AURKA); Log[nM] 2.0,105%
same,Aurora A % Activity Set1,aurora A kinase (AURKA); Log[nM] 2.5,103%
same,Aurora A % Activity Set2,aurora A kinase (AURKA); Log[nM] 2.5,108%
same,Aurora A % Activity Set3,aurora A kinase (AURKA); Log[nM] 2.5,106%
same,Aurora A % Activity Set1,aurora A kinase (AURKA); Log[nM] 3.0,91%
same,Aurora A % Activity Set2,aurora A kinase (AURKA); Log[nM] 3.0,104%
same,Aurora A % Activity Set3,aurora A kinase (AURKA); Log[nM] 3.0,91%
same,Aurora A % Activity Set1,aurora A kinase (AURKA); Log[nM] 3.5,55%
same,Aurora A % Activity Set2,aurora A kinase (AURKA); Log[nM] 3.5,51%
same,Aurora A % Activity Set3,aurora A kinase (AURKA); Log[nM] 3.5,58%
same,Aurora A % Activity Set1,aurora A kinase (AURKA); Log[nM] 4.0,16%
same,Aurora A % Activity Set2,aurora A kinase (AURKA); Log[nM] 4.0,21%
same,Aurora A % Activity Set3,aurora A kinase (AURKA); Log[nM] 4.0,19%
same,Aurora A % Activity Set1,aurora A kinase (AURKA); Log[nM] 4.5,11%
same,Aurora A % Activity Set2,aurora A kinase (AURKA); Log[nM] 4.5,12%
same,Aurora A % Activity Set3,aurora A kinase (AURKA); Log[nM] 4.5,11%
same,Aurora A % Activity Set1,aurora A kinase (AURKA); Log[nM] 5.0,11%
same,Aurora A % Activity Set2,aurora A kinase (AURKA); Log[nM] 5.0,12%
same,Aurora A % Activity Set3,aurora A kinase (AURKA); Log[nM] 5.0,13%

# Source: article PMC6009956, “Design, synthesis and biological activity of N^4-phenylsubstituted-7H-pyrrolo[2,3-d]pyrimidin-4-amines as dual inhibitors of aurora kinase A and epidermal growth factor receptor kinase” (Journal of Enzyme Inhibition and Medicinal Chemistry, 2017)
